Results reported in ChEMBL document CHEMBL3046197, “Relation between Penetration Rates of Pesticides and Partition Coefficients in Topical Application to Spodoptera litura” (J Pestic Sci, 2001).

Experiments:
[1] = tested on: Spodoptera litura; assay: Drug uptake in Spodoptera litura assessed as surface residue level 0.2 ug/insect after 16 hr; format: ADME, organism-based; conditions: in vivo, topical_or_ocular
[2] = tested on: Spodoptera litura; assay: Drug uptake in Spodoptera litura assessed as surface residue level 0.2 ug/insect after 8 hr; format: ADME, organism-based; conditions: in vivo
[3] = Octanol-water partition coefficient, log P of the compound by shake-flask method; format: physicochemical
[4] = tested on: Spodoptera litura; assay: Drug uptake in Spodoptera litura assessed as recovered drug level 0.2 ug/insect after 16 hr; format: ADME, organism-based; conditions: in vivo
[5] = tested on: Spodoptera litura; assay: Drug uptake in Spodoptera litura assessed as recovered drug level 0.2 ug/insect after 8 hr; format: ADME, organism-based; conditions: in vivo
[6] = tested on: Spodoptera litura; assay: Drug uptake in Spodoptera litura assessed as penetrated drug level 0.2 ug/insect after 16 hr; format: ADME, organism-based; conditions: in vivo
[7] = tested on: Spodoptera litura; assay: Drug uptake in Spodoptera litura assessed as penetrated drug level 0.2 ug/insect after 8 hr; format: ADME, organism-based; conditions: in vivo
[8] = tested on: Spodoptera litura; assay: Drug uptake in Spodoptera litura assessed as unchanged drug level 0.2 ug/insect after 8 hr; format: ADME, organism-based; conditions: in vivo
[9] = tested on: Spodoptera litura; assay: Drug uptake in Spodoptera litura assessed as surface residue level 0.2 ug/insect after 3 hr; format: ADME, organism-based; conditions: in vivo
[10] = tested on: Spodoptera litura; assay: Drug uptake in Spodoptera litura assessed as recovered drug level 0.2 ug/insect after 3 hr; format: ADME, organism-based; conditions: in vivo
[11] = tested on: Spodoptera litura; assay: Drug uptake in Spodoptera litura assessed as penetrated drug level 0.2 ug/insect after 3 hr; format: ADME, organism-based; conditions: in vivo
[12] = tested on: Spodoptera litura; assay: Drug uptake in Spodoptera litura assessed as unchanged drug level 0.2 ug/insect after 3 hr; format: ADME, organism-based; conditions: in vivo
[13] = tested on: Spodoptera litura; assay: Drug uptake in Spodoptera litura assessed as surface residue level 0.2 ug/insect after 0.5 hr; format: ADME, organism-based; conditions: in vivo, topical_or_ocular
[14] = tested on: Spodoptera litura; assay: Drug uptake in Spodoptera litura assessed as recovered drug level 0.2 ug/insect after 0.5 hr; format: ADME, organism-based; conditions: in vivo
[15] = tested on: Spodoptera litura; assay: Drug uptake in Spodoptera litura assessed as recovered drug level 0.2 ug/insect after 1 hr; format: ADME, organism-based; conditions: in vivo
[16] = tested on: Spodoptera litura; assay: Drug uptake in Spodoptera litura assessed as penetrated drug level 0.2 ug/insect after 0.5 hr; format: ADME, organism-based; conditions: in vivo
[17] = tested on: Spodoptera litura; assay: Drug uptake in Spodoptera litura assessed as penetrated drug level 0.2 ug/insect after 1 hr; format: ADME, organism-based; conditions: in vivo
[18] = tested on: Spodoptera litura; assay: Drug uptake in Spodoptera litura assessed as unchanged drug level 0.2 ug/insect after 0.5 hr; format: ADME, organism-based; conditions: in vivo
[19] = tested on: Spodoptera litura; assay: Drug uptake in Spodoptera litura assessed as surface residue level 0.2 ug/insect after 1 hr; format: ADME, organism-based; conditions: in vivo
[20] = tested on: Spodoptera litura; assay: Drug uptake in Spodoptera litura assessed as unchanged drug level 0.2 ug/insect after 1 hr; format: ADME, organism-based; conditions: in vivo
[21] = tested on: Spodoptera litura; assay: Drug uptake in Spodoptera litura assessed as surface residue level 0.2 ug/insect after 6 hr; format: ADME, organism-based; conditions: in vivo
[22] = tested on: Spodoptera litura; assay: Drug uptake in Spodoptera litura assessed as recovered drug level 0.2 ug/insect after 6 hr; format: ADME, organism-based; conditions: in vivo
[23] = tested on: Spodoptera litura; assay: Drug uptake in Spodoptera litura assessed as penetrated drug level 0.2 ug/insect after 6 hr; format: ADME, organism-based; conditions: in vivo
[24] = tested on: Spodoptera litura; assay: Drug uptake in Spodoptera litura assessed as surface residue level 0.2 ug/insect after 2 hr; format: ADME, organism-based; conditions: in vivo
[25] = tested on: Spodoptera litura; assay: Drug uptake in Spodoptera litura assessed as surface residue level 0.2 ug/insect after 4 hr; format: ADME, organism-based; conditions: in vivo
[26] = tested on: Spodoptera litura; assay: Drug uptake in Spodoptera litura assessed as recovered drug level 0.2 ug/insect after 2 hr; format: ADME, organism-based; conditions: in vivo
[27] = tested on: Spodoptera litura; assay: Drug uptake in Spodoptera litura assessed as recovered drug level 0.2 ug/insect after 4 hr; format: ADME, organism-based; conditions: in vivo
[28] = tested on: Spodoptera litura; assay: Drug uptake in Spodoptera litura assessed as penetrated drug level 0.2 ug/insect after 2 hr; format: ADME, organism-based; conditions: in vivo
[29] = tested on: Spodoptera litura; assay: Drug uptake in Spodoptera litura assessed as penetrated drug level 0.2 ug/insect after 4 hr; format: ADME, organism-based; conditions: in vivo
[30] = tested on: Spodoptera litura; assay: Drug uptake in Spodoptera litura assessed as unchanged drug level 0.2 ug/insect after 2 hr; format: ADME, organism-based; conditions: in vivo
[31] = tested on: Spodoptera litura; assay: Drug uptake in Spodoptera litura assessed as surface residue level 0.2 ug/insect after 24 hr; format: ADME, organism-based; conditions: in vivo, topical_or_ocular
[32] = tested on: Spodoptera litura; assay: Drug uptake in Spodoptera litura assessed as recovered drug level 0.2 ug/insect after 24 hr; format: ADME, organism-based; conditions: in vivo
[33] = tested on: Spodoptera litura; assay: Drug uptake in Spodoptera litura assessed as penetrated drug level 0.2 ug/insect after 24 hr; format: ADME, organism-based; conditions: in vivo
[34] = tested on: Spodoptera litura; assay: Drug uptake in Spodoptera litura assessed as unchanged drug level 0.2 ug/insect after 4 hr; format: ADME, organism-based; conditions: in vivo

CC(C)=C[C@@H]1[C@@H](C(=O)OCN2C(=O)C3=C(CCCC3)C2=O)C1(C)C [(1R)-TRANS-TETRAMETHRIN]
Drug uptake [1]: 44.9% | Drug uptake [2]: 63.7% | logP [3]: 4.73 | Drug recovery [4]: 80.1% | Drug recovery [5]: 84.9% | Drug uptake [6]: 35.2% | Drug uptake [7]: 21.2% | Drug uptake [8]: 60.3%

CCOP(=S)(Oc1ccc(C#N)cc1)c1ccccc1 (centres undefined) [CYANOFENPHOS]
Drug uptake [2]: 11.3% | Drug uptake [9]: 39.9% | Drug recovery [5]: 96% | Drug recovery [10]: 96.4% | Drug uptake [7]: 84.6% | Drug uptake [11]: 56.5% | Drug uptake [12]: 37.4%

COP(=O)(OC)Oc1ccc(C#N)cc1 [CYANOPHOS-OXON]
Drug uptake [13]: 34.5% | logP [3]: 0.84 | Drug recovery [14]: 89.9% | Drug recovery [15]: 96.7% | Drug uptake [16]: 55.4% | Drug uptake [17]: 65.5% | Drug uptake [18]: 29.3% | Surface residue [19]: 31.2%

COP(=S)(OC)Oc1ccc(C#N)cc1 [CYANOPHOS]
Drug uptake [20]: 34.3% | Drug uptake [21]: 8.1% | logP [3]: 2.65 | Drug recovery [22]: 80.9% | Drug recovery [15]: 76.6% | Drug uptake [23]: 72.8% | Drug uptake [17]: 39.2% | Surface residue [19]: 37.4%

CCOc1ccc(NC(=O)OC(C)C)cc1OCC [DIETHENOFENCARB]
Drug uptake [1]: 18.1% | Drug uptake [9]: 56.6% | logP [3]: 3.02 | Drug recovery [4]: 81.7% | Drug recovery [10]: 88.5% | Drug uptake [6]: 63.5% | Drug uptake [11]: 31.9% | Drug uptake [12]: 52.6%

COP(=S)(OC)Oc1ccc([N+](=O)[O-])c(C)c1 [FENITROTHION]
Drug uptake [20]: 40.9% | Drug uptake [21]: 10.8% | Drug recovery [22]: 81.8% | Drug recovery [15]: 94.8% | Drug uptake [23]: 71% | Drug uptake [17]: 51.2% | Surface residue [19]: 43.6%

COP(=O)(OC)Oc1ccc([N+](=O)[O-])c(C)c1 [FENITROXON]
Drug uptake [9]: 25.3% | Drug uptake [13]: 44.9% | Drug recovery [10]: 87.8% | Drug recovery [14]: 96.4% | Drug uptake [11]: 62.4% | Drug uptake [16]: 51.5% | Drug uptake [18]: 42.7%

CC1(C)C(C(=O)OC(C#N)c2cccc(Oc3ccccc3)c2)C1(C)C (centres undefined) [FENPROPATHRIN]
Drug uptake [24]: 68.8% | Drug uptake [25]: 69.2% | logP [3]: 6 | Drug recovery [26]: 90.8% | Drug recovery [27]: 82.3% | Drug uptake [28]: 22% | Drug uptake [29]: 13.1% | Drug uptake [30]: 66.5%

CCOP(=S)(OCC)Oc1ccc([N+](=O)[O-])cc1 [PARATHION]
Drug uptake [20]: 56.8% | Drug uptake [21]: 10.9% | Drug recovery [22]: 89.8% | Drug recovery [15]: 95.6% | Drug uptake [23]: 78.9% | Drug uptake [17]: 35% | Surface residue [19]: 60.6%

CC(COc1ccc(Oc2ccccc2)cc1)Oc1ccccn1 (centres undefined) [PYRIPROXYFEN]
Drug uptake [31]: 7.6% | Drug uptake [25]: 56.4% | logP [3]: 5.31 | Drug recovery [32]: 84% | Drug recovery [27]: 96.7% | Drug uptake [33]: 76.4% | Drug uptake [29]: 40.3% | Drug uptake [34]: 55.3%

CC(C)(C)N(NC(=O)c1ccccc1)C(=O)c1ccccc1 [RH-5849]
Drug uptake [31]: 50.2% | Drug uptake [2]: 52.3% | Drug recovery [8]: 38.4%
